Source: patent US10899714B2, “6-aminoisoquinoline compounds” (Aerie Pharmaceuticals, Inc., priority 2007, dated 2021)
Structures can show the parent of a compound that is named as a salt.

Tests used:
Assay type in all cases: in vivo
[1] = Topical ocular composition (Example 212), dry eye syndrome; conditions: 0.50 wt % topical composition, drop twice per day
[2] = Topical ocular composition (Example 212), allergic symptoms; conditions: 0.50 wt % topical composition
[3] = Topical ocular composition (Example 212), hyperemia, redness and ocular irritation; conditions: 0.50 wt % topical composition, drop as needed
[4] = system: patient suffering from glaucoma; assay: Topical ocular composition (Example 212) lowering intraocular pressure; conditions: 0.50 wt % topical composition
Method: Examples of such assays are described in the following reference, incorporated herein by reference: C. Liljebris, G. Selen. B. Resul, J. Sternschantz, and U. Hacksell, “Derivatives of 17-Phenyl-18, 19, 20-trinorprostaglandin F2α Isopropyl Ester: Potential Anti-glaucoma Agents”, Journal of Medicinal Chemistry, Vol. 38 (2) 1995, pp. 289-304.
Topical pharmaceutical compositions for lowering intraocular pressure are prepared by conventional methods and formulated as follows: […]
A compound according to this invention is used as the 6-aminoisoquinoline derivative. […]

[5] = Topical ocular composition (Example 212), neuroprotective effect; conditions: 0.50 wt % topical composition, drop 4 times per day

SMILES: O=C(CCl)Nc1ccc2cnccc2c1 [Example E1, 2-chloro-N-(isoquinolin-6-yl) acetamide]
- dry eye syndrome [1]: relieves dry eye syndrome
- allergic symptoms ([2]; drop twice per day): substantially decreases allergic symptoms

SMILES: NCC(=O)Nc1ccc2cnccc2c1 [Example E40, 2-amino-N-isoquinoline-6-yl-acetamide dihydrochloride]
- hyperemia, redness and ocular irritation [3]: substantially decreases hyperemia, redness and ocular irritation

SMILES: O=C(CNCc1ccccc1)Nc1ccc2cnccc2c1 [Example E58, 2-(benzylamino)-N-(isoquinolin-6-yl)acetamide]
- intraocular pressure ([4]; drop twice per day): substantially decreases intraocular pressure

SMILES: O=C(Nc1ccc2cnccc2c1)OCc1ccccc1 [Example E87, benzylisoquinolin-6-ylcarbamate]
- dry eye syndrome [1]: relieves dry eye syndrome
- allergic symptoms ([2]; drop twice per day): substantially decreases allergic symptoms

SMILES: O=C(NCc1ccccc1)Nc1ccc2cnccc2c1 [Example E88, 1-benzyl-3-(isoquinolin-6-yl)urea]
- allergic symptoms ([2]; drop as needed): substantially decreases allergic symptoms

SMILES: O=C(CN1CCOCC1)Nc1ccc2cnccc2c1 [Example E105, N-(isoquinolin-6-yl)-2-morpholinoacetamide]
- hyperemia, redness and ocular irritation [3]: substantially decreases hyperemia, redness and ocular irritation

SMILES: O=C(Nc1ccncc1)c1ccc(C2CC2C(=O)Nc2ccc3cnccc3c2)cc1 (stereo not shown) [Example E118, 4-(2-(isoquinolin-6-ylcarbamoyl)cyclopropyl)-N-(pyridin-4-yl)benzamide]
- intraocular pressure ([4]; drop twice a day or as needed): substantially decreases intraocular pressure

SMILES: CNC(=O)c1cccc(NCC(=O)Nc2ccc3cnccc3c2Cl)c1 [Example E119b, 3-(2-(5-chloroisoquinolin-6-ylamino)-2-oxoethylamino)-N-methyl benzamide]
- intraocular pressure ([4]; drop twice a day or as needed): substantially decreases intraocular pressure

SMILES: CNC(=O)c1cccc(NCS(=O)(=O)Nc2ccc3cnccc3c2)c1 [Example E136, 3-((N-isoquinolin-6-ylsulfamoyl)methylamino)-N-methylbenzamide]
- intraocular pressure ([4]; drop twice per day): substantially decreases intraocular pressure

SMILES: N[C@@H](CSCC(C(=O)c1ccc(/C=C/C(=O)Nc2ccc3cnccc3c2)cc1)c1ccccc1)C(=O)O (stereo partly drawn) [Example E207, (2R)-2-amino-3-(3-(4-((E)-3-(isoquinolin-6-ylamino)-3-oxoprop-1-enyl)phenyl)-3-oxo-2-phenylpropylthio)propanoic acid]
- intraocular pressure ([4]; drop 4 times per day): substantially decreases intraocular pressure
- neuroprotective agent [5]: serves as a neuroprotective agent
